Source: article PMC12381739, “Druglike Molecular Degraders of the Oncogenic RNA-Binding Protein HuR” (JACS Au, 2025)

How the values were obtained:
MDA-MB-231 spheroids = experiment: 3D spheroid growth model, MDA-MB-231; format: cell-based, human; conditions: 10 nM
Method: (§1) MDA-MB-231 and MCF-7 breast cancer cells were cultured in standard tissue culture plates using RPMI or DMEM media supplemented with 10% fetal bovine serum (FBS) and 1% penicillin–streptomycin until they reached approximately 80% confluency. Cells were washed with PBS and dissociated using 0.25% Trypsin-EDTA, followed by neutralization with complete medium. Viability was assessed via trypan blue exclusion, ensuring >90% viable cells. For spheroid formation, cells were seeded into ultralow attachment 96-well plates at a density of 5000 cells/well in 200 μL of complete medium. Plates were centrifuged at 1000 rpm for 5 min to promote aggregation and incubated at 37 °C in a humidified 5% CO2 atmosphere. Spheroid formation was monitored daily using an inverted microscope. Media exchanges or treatment additions were performed by carefully aspirating 100 μL of medium from each well and replacing it with an equal volume of fresh or treatment-containing medium. Differences in spheroid characteristics between the two cell lines were noted: MCF-7 cells, being epithelial and E-cadherin positive, formed compact, uniform spheroids at lower seeding densities (1000–5000 cells/well) over 3–5 days, whereas MDA-MB-231 cells, which lack E-cadherin, required higher densities (5000–10,000 cells/well) and formed looser aggregates typically within 2–4 days. All experiments were performed in duplicates. Surface area was calculated using Image View’s multipoint connection function.

Bcl2 [1] = experiment: Bcl2 protein expression by western blot in MDA-MB-231 cells; format: cell-based, human; conditions: MDA-MB-231, 10 nM, 24 h
Method: (§2) The hook effect was again observed in Bcl2 protein expression, underscoring the functional link between HuR and Bcl2.
(§3) MDA-MB-231 and MCF-7 cells were seeded in 6-well plates at approximately 60% confluency in complete growth medium and treated with synthesized compounds at the indicated concentrations or with vehicle for 24 h. Total protein was extracted using RIPA cell lysis buffer (BioPrep) containing a protease inhibitor, and protein concentration was measured using the BCA protein assay (Sigma-Aldrich) according to the manufacturer’s protocol. Approximately 30 μg of total protein were resolved on a 12% SDS-acrylamide gel and transferred to a PVDF membrane (Immobilon FL transfer membrane; Merck). The membrane was washed with 1× Tris-buffered saline (TBS) containing 0.1% (v/v) Tween-20 (TBST; Tris-base, pH 7.6, NaCl, and Tween-20) and blocked in 1× TBST containing 5% (w/v) BSA for 2 h at room temperature. […] The fold change in the expression of the target proteins (HuR or Bcl2) was calculated by normalizing the band intensity to the Vinculin band intensity using ImageJ.

MCF-7 spheroids = experiment: 3D spheroid growth model, MCF-7; format: cell-based, human; conditions: 10 nM
Method: as §1

MCF-10A = experiment: Crystal violet viability assay in MCF-10A cells; format: cell-based; conditions: 10 nM or 10 μM, 48 h
Excerpt: (§4) To elucidate the decrease in cell viability observed, we evaluated the potential increase in apoptosis using the […] Caspase-Glo 3/7 assay system. Upon cell lysis, active caspases cleave a luminogenic substrate, releasing aminoluciferin, which is subsequently converted to light by luciferase. The intensity of the signal directly correlates with the levels of apoptosis. […] This destabilization reduces the levels of proteins essential for cancer cell survival, resulting in cumulative cellular stress, diminished proliferation, and enhanced cytotoxicity. […] This enhanced effect is likely due to the catalytic nature of the molecular glue degraders, offering promising potential for cancer treatment.
RNF-126 recruiter for 48 h, measured using crystal violet. (B) Viability assay of MCF-10A cells
126 recruiter for 48 h, measured using crystal violet.
(1 picture or pasted object on this page, not shown here)

MCF-7 cells [2] = experiment: Caspase-Glo 3/7 apoptosis assay; format: cell-based, human; conditions: MCF-7, 10 nM
Excerpt: as §4
MCF-7 cells were seeded in 96-well plates to 80% confluency and treated with synthesized compounds at four concentrations (1 nM–1 μM) for 24 and 48 h. Cell apoptosis was analyzed using the Caspase-Glo 3/7 Assay System (Promega, G8090). Each sample was incubated with Caspase-Glo 3/7 solution for 1 h, followed by luminescence measurement. Luminescence was measured […] using the Synergy H1 Hybrid Multi-Mode Microplate Reader (Biotek, Agilent). Cell apoptosis was calculated as the percent increase in luminescence of treated cells compared to untreated controls. All experiments were performed in triplicate.

MCF-7 cells [3] = experiment: Crystal violet viability assay in MCF-7 cells; format: cell-based, human; conditions: MCF-7, 10 nM and 10 μM, 48 h
Excerpt: as §4
[…] After treatment, the medium was removed, and cells were gently washed with PBS to remove any residual media. Cells were then fixed by adding 100 μL of 100% cold methanol and incubating for 10 min. The methanol was aspirated, and the cells were allowed to air-dry fully. The cells were stained with 50 μL of 0.1% crystal violet for 10 min, after which excess crystal violet was aspirated and the cells were washed with PBS. To quantify cell viability, 100 μL of 33% acetic acid was added to each well to solubilize the bound dye. […] was then measured at 590 nm using Synergy H1 Hybrid Multi-Mode Microplate Reader (Biotek, Agilent). […]

Bcl2 [4] = experiment: Bcl2 protein expression by western blot in MCF-7 cells; format: cell-based, human; conditions: MCF-7, 10 nM, 24 h
Method: as §2, §3

Bcl2 and FOXQ1 mRNA = experiment: mRNA RT-qPCR of Bcl2 and FOXQ1 in MCF-7 cells; format: cell-based, human; conditions: MCF-7, concentrations ranging from 1 nM to 100 nM
Method: MCF-7 cells were seeded into 12-well plates (∼150,000 cells per well) at 60–70% confluency incubated for 12 h. The cells were then treated with different synthesized compounds at the indicated concentrations or with vehicle control for 24 and 48 h. After treatment, total RNA was extracted using the QuickRNA Miniprep Kit (Zymo Research) according to the manufacturer’s protocol, including DNase I treatment. Reverse transcription was performed on 1 μg of total RNA using the qScript cDNA Synthesis Kit (Quantabio) following the manufacturer’s instructions. Approximately 30 ng of cDNA were used for each qPCR reaction, which was carried out using the Luna Universal qPCR Master Mix (New England BioLabs, cat# E3010G) on a CFX Opus 384 Real-Time PCR System. Relative expression levels of Bcl-2 and FOXQ1 were calculated by normalizing to GAPDH expression using the ΔΔCt method.

## CCOC(=O)c1cc2cc(NC(=O)/C=C/C(=O)c3ccc(OC)cc3)ccc2[nH]1 [MG-HuR2]
MDA-MB-231 spheroids
  spheroid growth: inhibited spheroid growth after 2 days
Bcl2 [1]
  reduction of Bcl2 protein expression: 45%
MCF-7 spheroids
  spheroid growth: inhibited spheroid growth after 2 days
MCF-10A
  cytotoxicity / viability in nontumorigenic cells: No significant cytotoxicity or change in viability
MCF-7 cells [2]
  apoptosis (caspase 3/7): significant increase in apoptosis
MCF-7 cells [3]
  cytotoxicity / cell viability (crystal violet): exhibited cytotoxic activity
Bcl2 [4]
  reduction of Bcl2 protein expression: 88%
Bcl2 and FOXQ1 mRNA
  Bcl2 and FOXQ1 mRNA expression: decrease in the expression of both genes
